Measured values published in ChEMBL document CHEMBL5696439 (Cancer Res, 2010).
Active and inactive are the calls of the source. The rule behind the calls is not given here.

Key:
MDA-MB-361 [1] = assay: Antitumor activity against human MDA-MB-361 cells xenografted in female nude mouse model assessed as suppression in P-S6K at T389 level at 50 mg/kg, po qd administered as 5 days on/2 days off regimen for 4 cycles by immunoblot analysis; format: functional, organism-based; details: time 28.0 day
[2] = molecular target: Rhodopsin kinase GRK7 (Homo sapiens) (UniProt Q8WTQ7); assay: Inhibition of recombinant human full-length GST-tagged GRK7 expressed in insect cells at 2 uM using Ser/Thr 16 as substrate measured after 1 hr by Z'-LYTE assay relative to control; details: Insect cell
[3] = molecular target: Ribosomal protein S6 kinase beta-1 (Homo sapiens) (UniProt P23443); assay: Inhibition of recombinant human GST-tagged RPS6KB1 (1-421 residues) expressed in insect cells at 2 uM using Ser/Thr 07 as substrate measured after 1 hr by Z'-LYTE assay relative to control; details: Insect cell
[4] = molecular target: Casein kinase I isoform alpha (Homo sapiens) (UniProt P48729); assay: Inhibition of recombinant human full-length GST-tagged CSNK1A1 at 2 uM using Ser/Thr 11 as substrate measured after 1 hr by Z'-LYTE assay relative to control
[5] = molecular target: Mitogen-activated protein kinase kinase kinase kinase 5 (Homo sapiens) (UniProt Q9Y4K4); assay: Inhibition of recombinant human full length GST-tagged MAP4K5 expressed in insect cells at 2 uM using Ser/Thr 07 as substrate measured after 1 hr by Z'-LYTE assay relative to control; details: Insect cell
[6] = molecular target: Serine/threonine-protein kinase MRCK alpha (Homo sapiens) (UniProt Q5VT25); assay: Inhibition of recombinant human His-tagged CDC42BPA (1-473 residues) expressed in baculovirus expression system at 2 uM using Ser/Thr 13 as substrate measured after 1 hr by Z'-LYTE assay relative to control
[7] = molecular target: NT-3 growth factor receptor (Homo sapiens) (UniProt Q16288); assay: Inhibition of recombinant human His-tagged NTRK3 (510-825 residues) expressed in baculovirus expression system at 2 uM using Tyr 01 as substrate measured after 1 hr by Z'-LYTE assay relative to control
MDA-MB-361 [8] = assay: Induction of apoptosis in human MDA-MB-361 cells assessed as increase in G1 phase at 5 micromol/L incubated for 24 hrs by FACS analysis relative to control; format: functional; details: dose 5 µmol/L, at 5 µM
A498 = assay: cells; details: Homo sapiens, A498, 24 h
Description: Antiproliferative activity against human A498 cells assessed as cell growth inhibition incubated for 1 days by MTS assay

MG-63 = assay: Antiproliferative activity against human MG-63 cells assessed as cell growth inhibition incubated for 24 hrs by MTS assay; format: functional, cell-based; details: MG-63, 24 h
MDA-MB-361 [9] = assay: Induction of apoptosis in human MDA-MB-361 cells assessed as induction in cell death at 3 micromol/L incubated for 48 hrs by FACS analysis relative to control; format: functional; details: dose 3 µmol/L, at 3 µM
MDA-MB-361 [10] = assay: Induction of apoptosis in human MDA-MB-361 cells assessed as little increase in G1 phase at 5 micromol/L incubated for 12 hrs by FACS analysis relative to control; format: functional, cell-based; details: dose 5.0 µmol/L
[11] = molecular target: Calcium/calmodulin-dependent protein kinase type IV (Homo sapiens) (UniProt Q16566); assay: Inhibition of recombinant human full-length GST-tagged CAMK4 expressed in E. coli at 2 uM using Ser/Thr 13 as substrate measured after 1 hr by Z'-LYTE assay relative to control
[12] = molecular target: RAC-alpha serine/threonine-protein kinase (Homo sapiens) (UniProt P31749); assay: Inhibition of recombinant human full-length His-tagged AKT1 expressed in insect cells at 2 uM using Ser/Thr 06 as substrate measured after 1 hr by Z'-LYTE assay relative to control; details: Insect cell
[13] = molecular target: Mitogen-activated protein kinase 9 (Homo sapiens) (UniProt P45984); assay: Inhibition of recombinant human full length His-tagged MAPK9 expressed in baculovirus expression system at 2 uM using Ser/Thr 04 as substrate measured after 1 hr by Z'-LYTE assay relative to control
A549 = assay: Antitumor activity against human A549 cells xenografted in female nude mouse model assessed as inhibition in tumor growth at 10 to 50 mg/kg, po qd administered as 5 days on/2 days off regimen for 4 cycles; format: functional, organism-based; details: dose 10-50 mg/kg, time 28.0 day
[14] = molecular target: Serine/threonine-protein kinase PAK 5 (Homo sapiens) (UniProt Q9P286); assay: Inhibition of recombinant human His-tagged PAK7 (425-719 residues) expressed in baculovirus expression system at 2 uM using Ser/Thr 20 as substrate measured after 1 hr by Z'-LYTE assay relative to control
[15] = molecular target: Megakaryocyte-associated tyrosine-protein kinase (Homo sapiens) (UniProt P42679); assay: Inhibition of recombinant human full length His-tagged MATK expressed in E. coli at 2 uM using Tyr 01 as substrate measured after 1 hr by Z'-LYTE assay relative to control
HT-29 = assay: Antitumor activity against human HT-29 cells xenografted in female nude mouse model assessed as reduction in P-AKT at T308 level at 50 mg/kg, iv administered once a week and measured at least 8 hrs by immunoblot analysis; format: functional, organism-based
[16] = molecular target: Eukaryotic elongation factor 2 kinase (Homo sapiens) (UniProt O00418); assay: Inhibition of recombinant human full-length GST-tagged EEF2K expressed in E. coli at 2 uM using Ser/Thr 24 as substrate measured after 1 hr by Z'-LYTE assay relative to control
MDA-MB-361 [17] = assay: Antiproliferative activity against human MDA-MB-361 cells assessed as cell growth inhibition incubated for 24 hrs by MTS assay; format: functional, cell-based; details: MDA-MB-361, 24 h
[18] = molecular target: High affinity nerve growth factor receptor (Homo sapiens) (UniProt P04629); assay: Inhibition of recombinant human His-tagged NTRK1 (441-796 residues) expressed in insect cells at 2 uM using Tyr 01 as substrate measured after 1 hr by Z'-LYTE assay relative to control; details: Insect cell
HCT-116 = assay: Induction of apoptosis in human HCT-116 cells assessed as increase in G1 phase at 1 micromol/L incubated for 24 hrs by FACS analysis; format: functional, cell-based; details: dose 1.0 µmol/L
[19] = molecular target: Interleukin-1 receptor-associated kinase 4 (Homo sapiens) (UniProt Q9NWZ3); assay: Inhibition of recombinant human full-length His-tagged IRAK4 expressed in insect cells at 2 uM using Ser/Thr 07 as substrate measured after 1 hr by Z'-LYTE assay relative to control; details: Insect cell
[20] = system: Platelet-derived growth factor receptor alpha (Homo sapiens), P16234 [D842V]; assay: Inhibition of recombinant human GST-tagged PDGFRA D842V mutant (550-1089 residues) expressed in baculovirus expression system at 2 uM using Tyr 04 as substrate measured after 1 hr by Z'-LYTE assay relative to control
MDA-MB-361 [21] = assay: Antiproliferative activity against human MDA-MB-361 cells assessed as cell growth inhibition incubated for 2 days by MTS assay; format: functional, cell-based; details: MDA-MB-361, 48 h

RAC-alpha serine/threonine-protein kinase (Homo sapiens), sequence (P31749 whole entry): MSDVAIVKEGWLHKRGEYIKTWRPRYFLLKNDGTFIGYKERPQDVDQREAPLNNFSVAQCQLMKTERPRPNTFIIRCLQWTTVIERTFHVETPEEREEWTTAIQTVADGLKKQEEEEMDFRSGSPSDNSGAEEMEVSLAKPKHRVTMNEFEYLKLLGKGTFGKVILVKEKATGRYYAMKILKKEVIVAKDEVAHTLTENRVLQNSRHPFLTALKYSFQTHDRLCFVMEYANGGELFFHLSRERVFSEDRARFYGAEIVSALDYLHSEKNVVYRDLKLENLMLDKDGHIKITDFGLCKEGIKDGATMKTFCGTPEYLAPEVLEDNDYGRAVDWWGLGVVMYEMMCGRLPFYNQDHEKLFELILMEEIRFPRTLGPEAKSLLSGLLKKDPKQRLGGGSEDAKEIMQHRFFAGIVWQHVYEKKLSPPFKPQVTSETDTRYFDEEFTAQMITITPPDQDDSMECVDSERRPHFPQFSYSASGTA
Mitogen-activated protein kinase kinase kinase kinase 5 (Homo sapiens), sequence (Q9Y4K4 whole entry, looked up, the tested form may be a part): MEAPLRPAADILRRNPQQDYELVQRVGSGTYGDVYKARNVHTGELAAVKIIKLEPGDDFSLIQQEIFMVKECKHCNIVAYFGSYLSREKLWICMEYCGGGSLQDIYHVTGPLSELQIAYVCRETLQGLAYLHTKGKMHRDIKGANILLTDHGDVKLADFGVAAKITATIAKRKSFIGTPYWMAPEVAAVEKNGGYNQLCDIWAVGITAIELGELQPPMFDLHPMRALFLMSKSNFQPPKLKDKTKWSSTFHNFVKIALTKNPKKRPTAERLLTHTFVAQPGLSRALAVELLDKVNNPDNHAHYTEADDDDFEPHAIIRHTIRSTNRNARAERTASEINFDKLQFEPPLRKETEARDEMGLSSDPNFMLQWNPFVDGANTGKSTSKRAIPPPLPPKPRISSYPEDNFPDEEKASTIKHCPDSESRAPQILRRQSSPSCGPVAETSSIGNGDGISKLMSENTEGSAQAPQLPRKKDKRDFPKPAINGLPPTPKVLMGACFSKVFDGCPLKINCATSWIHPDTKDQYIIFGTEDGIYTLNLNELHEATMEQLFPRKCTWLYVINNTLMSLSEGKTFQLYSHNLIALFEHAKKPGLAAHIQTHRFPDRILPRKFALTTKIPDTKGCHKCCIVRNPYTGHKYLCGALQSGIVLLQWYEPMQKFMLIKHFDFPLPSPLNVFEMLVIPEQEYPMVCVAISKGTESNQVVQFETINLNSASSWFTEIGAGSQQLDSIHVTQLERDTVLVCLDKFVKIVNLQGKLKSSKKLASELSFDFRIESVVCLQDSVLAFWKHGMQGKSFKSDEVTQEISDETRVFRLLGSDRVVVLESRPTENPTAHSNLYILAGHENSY
High affinity nerve growth factor receptor (Homo sapiens), sequence (P04629 33-796 limits assumed): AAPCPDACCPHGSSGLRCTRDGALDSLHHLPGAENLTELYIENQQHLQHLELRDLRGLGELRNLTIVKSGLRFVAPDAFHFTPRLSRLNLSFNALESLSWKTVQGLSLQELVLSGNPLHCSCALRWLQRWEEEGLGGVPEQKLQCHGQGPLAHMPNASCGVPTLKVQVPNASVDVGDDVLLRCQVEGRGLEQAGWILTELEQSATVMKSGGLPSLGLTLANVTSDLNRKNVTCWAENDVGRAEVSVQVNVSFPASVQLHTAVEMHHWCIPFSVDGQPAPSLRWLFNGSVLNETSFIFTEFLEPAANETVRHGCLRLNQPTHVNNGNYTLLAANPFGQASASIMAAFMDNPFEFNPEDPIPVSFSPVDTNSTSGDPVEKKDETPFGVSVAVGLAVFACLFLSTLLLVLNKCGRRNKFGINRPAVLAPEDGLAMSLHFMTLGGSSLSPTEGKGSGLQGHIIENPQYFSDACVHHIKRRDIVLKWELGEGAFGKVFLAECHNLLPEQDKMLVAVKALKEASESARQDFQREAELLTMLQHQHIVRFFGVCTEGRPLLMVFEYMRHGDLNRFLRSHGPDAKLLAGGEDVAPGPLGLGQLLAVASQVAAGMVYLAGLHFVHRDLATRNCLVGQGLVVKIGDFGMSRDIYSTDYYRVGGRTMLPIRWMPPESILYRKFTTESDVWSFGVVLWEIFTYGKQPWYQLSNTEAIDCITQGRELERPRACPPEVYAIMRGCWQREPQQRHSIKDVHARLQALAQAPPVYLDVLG
Ribosomal protein S6 kinase beta-1 (Homo sapiens), sequence (P23443 whole entry, looked up, the tested form may be a part, canonical isoform): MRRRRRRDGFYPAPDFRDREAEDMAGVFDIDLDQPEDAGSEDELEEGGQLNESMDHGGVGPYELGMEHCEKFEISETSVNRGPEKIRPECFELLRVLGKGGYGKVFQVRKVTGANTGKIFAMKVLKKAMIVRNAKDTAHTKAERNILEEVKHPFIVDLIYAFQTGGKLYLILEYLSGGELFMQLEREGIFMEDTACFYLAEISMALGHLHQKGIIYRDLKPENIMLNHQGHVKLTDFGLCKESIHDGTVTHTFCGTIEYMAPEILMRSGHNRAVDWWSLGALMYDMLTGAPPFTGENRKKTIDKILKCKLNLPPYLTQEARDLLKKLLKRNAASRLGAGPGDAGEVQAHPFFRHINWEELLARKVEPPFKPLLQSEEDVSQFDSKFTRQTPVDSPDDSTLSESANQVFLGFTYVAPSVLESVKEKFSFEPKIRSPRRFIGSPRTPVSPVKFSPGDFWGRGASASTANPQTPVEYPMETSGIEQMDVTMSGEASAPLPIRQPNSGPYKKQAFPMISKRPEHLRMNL
Eukaryotic elongation factor 2 kinase (Homo sapiens), sequence (O00418 whole entry): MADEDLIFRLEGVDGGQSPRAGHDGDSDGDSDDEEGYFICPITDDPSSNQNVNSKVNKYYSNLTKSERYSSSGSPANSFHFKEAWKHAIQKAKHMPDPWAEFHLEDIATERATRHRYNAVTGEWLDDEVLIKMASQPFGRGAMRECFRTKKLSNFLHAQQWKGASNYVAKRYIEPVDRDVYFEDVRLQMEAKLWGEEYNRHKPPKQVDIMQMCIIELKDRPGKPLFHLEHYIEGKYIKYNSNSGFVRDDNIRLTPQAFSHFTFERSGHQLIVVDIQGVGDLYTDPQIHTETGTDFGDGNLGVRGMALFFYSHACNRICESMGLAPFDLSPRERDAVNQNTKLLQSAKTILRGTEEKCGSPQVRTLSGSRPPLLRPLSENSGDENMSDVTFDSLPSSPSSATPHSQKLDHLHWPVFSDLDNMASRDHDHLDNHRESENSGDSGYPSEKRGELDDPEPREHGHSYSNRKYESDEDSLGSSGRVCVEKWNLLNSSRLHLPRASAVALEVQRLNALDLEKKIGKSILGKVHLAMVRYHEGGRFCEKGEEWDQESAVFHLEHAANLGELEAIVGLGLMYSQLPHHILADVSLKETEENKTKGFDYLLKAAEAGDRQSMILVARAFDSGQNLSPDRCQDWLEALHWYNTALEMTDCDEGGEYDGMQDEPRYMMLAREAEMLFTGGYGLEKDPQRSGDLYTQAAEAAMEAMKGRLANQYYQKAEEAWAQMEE
Serine/threonine-protein kinase MRCK alpha (Homo sapiens), sequence (Q5VT25 whole entry, the tested form may be a part): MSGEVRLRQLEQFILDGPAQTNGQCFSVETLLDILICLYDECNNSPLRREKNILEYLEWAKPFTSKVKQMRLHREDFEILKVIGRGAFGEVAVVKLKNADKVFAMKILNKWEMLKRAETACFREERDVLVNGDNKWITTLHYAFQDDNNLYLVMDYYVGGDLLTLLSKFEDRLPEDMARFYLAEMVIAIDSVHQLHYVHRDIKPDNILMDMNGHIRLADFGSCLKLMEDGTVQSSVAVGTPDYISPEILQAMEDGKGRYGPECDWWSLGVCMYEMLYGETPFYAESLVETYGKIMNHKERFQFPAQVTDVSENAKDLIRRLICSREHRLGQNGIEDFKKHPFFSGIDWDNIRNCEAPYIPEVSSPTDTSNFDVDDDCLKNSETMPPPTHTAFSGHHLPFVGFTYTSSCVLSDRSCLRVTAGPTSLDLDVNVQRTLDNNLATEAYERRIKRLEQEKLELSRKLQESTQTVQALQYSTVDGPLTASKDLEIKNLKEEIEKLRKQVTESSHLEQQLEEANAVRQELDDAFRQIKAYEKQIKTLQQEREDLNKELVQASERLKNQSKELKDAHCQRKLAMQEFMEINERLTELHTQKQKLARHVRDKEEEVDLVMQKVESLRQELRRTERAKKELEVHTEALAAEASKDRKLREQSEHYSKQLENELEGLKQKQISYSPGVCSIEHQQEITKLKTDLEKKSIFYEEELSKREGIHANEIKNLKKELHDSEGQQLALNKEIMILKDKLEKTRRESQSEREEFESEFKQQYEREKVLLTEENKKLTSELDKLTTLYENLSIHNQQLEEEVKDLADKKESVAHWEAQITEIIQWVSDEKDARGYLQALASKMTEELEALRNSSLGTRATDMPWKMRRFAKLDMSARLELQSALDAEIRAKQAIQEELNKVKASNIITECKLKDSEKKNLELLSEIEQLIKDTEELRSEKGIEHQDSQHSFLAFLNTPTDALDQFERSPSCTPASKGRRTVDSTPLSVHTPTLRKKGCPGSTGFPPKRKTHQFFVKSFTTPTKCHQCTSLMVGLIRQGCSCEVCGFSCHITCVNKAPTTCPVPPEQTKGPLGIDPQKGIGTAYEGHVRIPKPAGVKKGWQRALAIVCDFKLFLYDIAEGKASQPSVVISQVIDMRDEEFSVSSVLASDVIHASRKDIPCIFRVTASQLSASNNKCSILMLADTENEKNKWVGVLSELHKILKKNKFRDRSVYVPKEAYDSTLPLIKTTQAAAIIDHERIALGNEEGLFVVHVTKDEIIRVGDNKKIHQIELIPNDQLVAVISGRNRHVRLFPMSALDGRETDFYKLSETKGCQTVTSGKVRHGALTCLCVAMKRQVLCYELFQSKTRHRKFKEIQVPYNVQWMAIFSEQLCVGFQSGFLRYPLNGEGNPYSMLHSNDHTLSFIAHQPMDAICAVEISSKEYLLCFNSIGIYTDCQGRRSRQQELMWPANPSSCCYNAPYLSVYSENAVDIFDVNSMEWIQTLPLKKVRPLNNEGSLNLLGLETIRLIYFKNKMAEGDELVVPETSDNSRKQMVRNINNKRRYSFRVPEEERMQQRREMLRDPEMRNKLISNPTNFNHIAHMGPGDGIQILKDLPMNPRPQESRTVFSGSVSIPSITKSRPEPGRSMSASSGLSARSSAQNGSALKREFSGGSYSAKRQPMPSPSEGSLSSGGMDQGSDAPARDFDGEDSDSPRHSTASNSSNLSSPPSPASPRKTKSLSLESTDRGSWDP

Compound: CNC(=O)Nc1ccc(-c2nc(N3CC4CCC(C3)O4)c3cnn(C4CCC5(CC4)OCCO5)c3n2)cc1
- Activity (MDA-MB-361 [1]): Active
- inhibition [2]: 7%
- inhibition [3]: 2%
- inhibition [4]: 2%
- inhibition [5]: 19%
- inhibition [6]: 7%
- inhibition [7]: 5%
- Activity (MDA-MB-361 [8]): 12%
- IC50 (A498): > 20000 nM
- IC50 (MG-63): 25 nM
- Activity (MDA-MB-361 [9]): 59%
- Activity (MDA-MB-361 [10]): Active
- inhibition [11]: -1%
- inhibition [12]: -5%
- inhibition [13]: 11%
- inhibition (A549): Dose-Dependent Effect
- inhibition [14]: 11%
- inhibition [15]: 2%
- Activity (HT-29): inactive
- inhibition [16]: 1%
- IC50 (MDA-MB-361 [17]): 24 nM
- inhibition [18]: 7%
- Activity (HCT-116): Active
- inhibition [19]: 3%
- inhibition [20]: 4%
- IC50 (MDA-MB-361 [21]): 50 nM
